Experiment [1] deals with T1, MAP kinase-activated protein kinase 2 (Homo sapiens, UniProt P49137). The experiment is described as follows: Displacement of [8-3H]ATP from human recombinant MK2 (41-364) by scintillation proximity assay.
Experiment [2] addresses T1, MAP kinase-activated protein kinase 2. The experiment is described as follows: Inhibition of human recombinant phospho-MK2 (36-400) by HTRF assay. (In general: TR-FRET usually uses a lanthanide donor and a delayed reading to cut background.)
For experiment [3] the target is unchanged. The experiment is described as follows: Displacement of [8-3H]ATP from human recombinant MK2 (36-400) by scintillation proximity assay. On the technique in general: Scintillation proximity formats need no separation of bound from free tracer.

T1 sequence (P49137 whole entry): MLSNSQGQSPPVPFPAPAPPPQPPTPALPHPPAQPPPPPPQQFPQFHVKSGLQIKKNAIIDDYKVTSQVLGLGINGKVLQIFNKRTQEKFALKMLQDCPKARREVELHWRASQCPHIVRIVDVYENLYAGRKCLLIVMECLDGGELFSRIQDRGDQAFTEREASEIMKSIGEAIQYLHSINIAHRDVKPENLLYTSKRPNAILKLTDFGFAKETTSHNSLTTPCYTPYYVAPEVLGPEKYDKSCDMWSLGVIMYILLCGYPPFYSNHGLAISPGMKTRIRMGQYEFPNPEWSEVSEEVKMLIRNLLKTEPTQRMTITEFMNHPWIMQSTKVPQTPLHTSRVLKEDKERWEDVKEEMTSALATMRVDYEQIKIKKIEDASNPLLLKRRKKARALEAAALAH

The IC50 is the concentration at which inhibition is half-maximal. Turning to `Nc1ncnc2c1ncn2[C@@H]1O[C@H](COP(=O)(O)OP(=O)(O)OP(=O)(O)O)[C@@H](O)[C@H]1O` (single isomer, unassigned) [ADENOSINE TRIPHOSPHATE], the IC50 worked out at 12 µM in experiment [1], 2.8 µM in experiment [2] and 6.3 µM in experiment [3].
